# PMC6965176, “Targeting Forward and Reverse EphB4/EFNB2 Signaling by a Peptide with Dual Functions” (Scientific Reports, 2020)
# Non-standard residues stand in square brackets, D forms with d. No end group written: not given here.
# What was measured:
# EphB4 and Crk1 (MAPK14) = assay: EphB4 and Crk1 phosphorylation in A2780cp20 cells (IP/immunoblot); assay type: cell-based, human; settings: 50 nM (BIDEN-AP equivalent), 24 h after 16 h serum-free (Fig. S7A)
# Source text: Next, we determined the phosphorylation of EphB4 and its downstream adaptor protein Crk1 (MAPK14) in lysates from human A2780cp20 ovarian cancer cells by immunoprecipitation with anti-EphB4 and anti-Crk1 antibodies followed by immunoblotting with phospho-specific antibodies. […] In comparison, Alexa647-labeled antagonist TNYL-RAW was excluded.
# Figure 2 BIDEN-AP acts as an EphB4 agonist. (A) BIDEN-AP induced phosphorylation of EphB4 and the associated MAPK14 (Crk1). […] The uncropped blots are presented in Supplemental Figure 11. (B) BIDEN-AP inhibited A2780cp20 cell invasion compared to untreated controls (CTL). A modified Boyden transwell chamber coated with Matrigel was used. Representative data from three independent experiments using A2780cp20 cells are presented. Each experiment was repeated in triplicate. Data are shown as mean ± SD. ***p < 0.001 by unpaired, two-sided Student t-test. […]
# calculated as Koff/Kon. […]
# The capacity of BIDEN-AP to inhibit the binding of EFNB2 to EphB4 was assessed in a competitive binding assay. […] After each injection, the signal from the control flow cell was subtracted and the relative amount of EphB4 bound to EFNB2-Fc was recorded as the net response over the pre-injection baseline level. […]
# The protein concentrations were determined by using a BCA Protein Assay Reagent kit (Pierce Biotechnology, Rockford, IL). […]
# [1] = test system: orthotopic A2780cp20-Luc ovarian tumors; assay: Orthotopic A2780cp20-Luc ovarian cancer model
# Procedure: (A) Schema for in vivo orthotopic A2789cp20-Luc model and treatment. Female nude mice were intraperitoneally inoculated with A2789cp20-Luc tumor cells. Beginning on day 7 after inoculation, each mouse received 10 intraperitoneal injections of BIDEN-AP or CCPM-BIDEN-AP (bold arrows) at a dose 13 mg/kg/injection every other day for a total of 10 doses. Tumor growth was monitored by bioluminescence imaging (IVIS). (B,C) Representative bioluminescence images on day 28 after tumor cell inoculation (B) and corresponding quantification of signal intensity (C) of mice bearing orthotopic A2780cp20-Luc tumors (n = 4). (D,E) Tumor weight (D) and number of tumor nodules (E) per treatment group (n = 8). (F) Images of tumor nodules from each treatment group. Data are expressed as mean ± SD. *p < 0.05, **p < 0.01, ****p < 0.0001 by Student t-test. CTL, untreated controls.
# Female athymic nude mice (NCr-nu) were obtained from Harlan Laboratories (Indianapolis, IN) at age 4 to 6 weeks and kept under sterile conditions. For all therapeutic experiments, groups of the mice were inoculated intraperitoneally with A2780cp20-Luc cells (1×10^6 cells/mouse). The mice were treated with BIDEN-AP or CCPM-BIDEN-AP at a dose of 13 mg equivalent drug/kg per injection for a total of 10 doses every other day starting on day 7 after tumor cell inoculation. Untreated mice were used as a control. On day 31, all mice were euthanized and necropsied, and their tumors were harvested. Tumor weight and number and location of tumor nodules were recorded. Tumor tissue was fixed in formalin for paraffin embedding, frozen in optimal cutting temperature medium for frozen slide preparation, or snap-frozen for lysate preparation.
# On day 7, day 14, day 21, and day 28 after tumor inoculation, mice received a tail vein injection of D-luciferin (4 mg/kg) and their tumor burden was assessed by luciferase activity using the Xenogen IVIS-200 imaging system (Perkin Elmer, Shelton, CT). The bioluminescence imaging signal generated in mice was quantified using Living Image V.2.11 software and IGOR image analysis software (V.4.02 A; WaveMetrics, Portland, OR). The region of interest was manually selected, and the signal intensity was expressed in terms of the number of photons/s/cm^2.
# incubated overnight at 4°C. After washing, the slides were incubated with Alexa488-conjugated goat anti-rabbit secondary antibody for 60 min. Slides were subjected to recombinant terminal
# deoxynucleotidyl transferase (rTdT)–mediated dUTP nick-end labeling (TUNEL) by using the
# DeadEnd Fluorometric TUNEL System assay kit (Promega) after CD31 staining by immersing
# slides in 4% formaldehyde in PBS for 15 min. A 20 µg/mL proteinase K solution (Promega) was
# added to each slide (100 µL per slide), and the slides were incubated at room temperature for 8-
# 10 min. Slides were washed twice with PBS, 100 µL equilibration buffer (Promega) was added to
# each, and the slides were again incubated for 5-10 min. The slides were then labeled by adding
# 50 µL of fluorescein-12-dUTP as a substrate, and the rTdT was added. Each slide was covered
# with a plastic coverslip to ensure even distribution of the labeling solution and incubated for 60
# min at 37°C in a humidified chamber. The reaction was stopped by immersing slides in 2x SSC
# solution (87.7g NaCl, 44.1g sodium citrate, pH 7.0, in 500 mL) for 15 min. After washing with PBS,
substance,measurement,setting,value
CCPM-BIDEN-AP: nanoconjugate of BIDEN-AP with core-crosslinked polymeric micelles (CCPM) (TN[dY]LFSPNGPIARAW; also: conjugated to core-crosslinked polymeric micelles (CCPM)),EphB4 and Crk1 phosphorylation in vitro (agonist activity),EphB4 and Crk1 (MAPK14),potent agonist activity
same,bioluminescence signal intensity of tumors,"[1]; day 28 after inoculation, 13 mg/kg/injection i.p. every other day, 10 doses from day 7, n = 4 (Fig. 5A-C)",significantly reduced the bioluminescence signal intensity
same,"metastatic nodules, comparison of the two agents","[1]; day 31, 13 mg/kg/injection i.p., 10 doses (Fig. 5E,F)",reduced metastatic nodules to a greater extent than BIDEN-AP
same,tumor growth in the peritoneum (tumor weight and number of metastatic nodules) versus controls,"[1]; day 31 after inoculation, 13 mg/kg/injection i.p., 10 doses, n = 8 (Fig. 5D)",significantly reduced tumor growth in the peritoneum
same,apoptotic cell death in CD31+ endothelial vasculature within tumor stroma,"[1]; excised A2780cp20 tumors, CD31/TUNEL co-staining, versus untreated control (Fig. 6A-C)",induced apoptotic cell death
same,angiogenesis in tumors (microvessel density),"[1]; excised A2780cp20 tumors, CD31 staining (Fig. 6A-C)",suppressed angiogenesis in tumors
same,tumor cell proliferation (Ki67-positive cells),"[1]; excised A2780cp20 tumors, Ki67 IHC (Fig. 6D,E)",significantly reduced tumor cell proliferation
same,EphB4 and Crk1 phosphorylation in vivo in tumors,"[1]; orthotopic A2780cp20 tumors of treated mice, IP/immunoblot (Fig. S7B)",induce EphB4 and Crk1 phosphorylation
